System: 699152-130-R-J1-PDC complex spheroid growth
Test: Anticancer human tumor 699152-130-R-J1-PDC patient-derived pancreatic carcinoma cell line growth inhibition [AhR]
Conditions: for IC50: curve of first compound; for viability, T/C: stronger effect = lower value
How it was run: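 Spheroids combined tumor cells with HUVEC endothelial cells and human MSCs as stroma. AhR antagonists were paired with standard or investigational drugs, each dosed in half-log steps down from near clinical Cmax, or from 10 microM where Cmax was unknown.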

[1] = second compound 0.1 µM, first compound 0.0316 µM
[2] = second compound 0.1 µM, first compound 0.1 µM
[3] = second compound 0.316 µM, first compound 0.0316 µM
[4] = second compound 0.316 µM, first compound 0.1 µM
[5] = second compound 1 µM, first compound 0.0316 µM
[6] = second compound 1 µM, first compound 0.1 µM
[7] = second compound 3.16 µM, first compound 0.0316 µM
[8] = second compound 3.16 µM, first compound 0.1 µM
[9] = second compound 10 µM, first compound 0.0316 µM
[10] = second compound 10 µM, first compound 0.1 µM
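Further: compound exposure lasted 7 days after spheroids had grown for 3 days.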

In the case of Cn1ncnc1C1c2n[nH]c(=O)c3cc(F)cc(c23)NC1c1ccc(F)cc1 (stereo not given) + Cc1cncc(-c2nc(NCCc3c[nH]c4ccccc34)c3ncn(C(C)C)c3n2)c1, the IC50 (second compound 0.1 µM) is reported as > 0.1 µM, the IC50 (second compound 0.316 µM) is reported as > 0.1 µM and the IC50 (second compound 1 µM) is reported as > 0.1 µM. The IC50 (second compound 3.16 µM) was > 0.1 µM, the IC50 (second compound 10 µM) was < 0.000316 µM and the viability, T/C (second compound 0.1 µM, first compound 0.000316 µM) was 95.2%. The viability, T/C (second compound 0.1 µM, first compound 0.001 µM) was 117%, the viability, T/C (second compound 0.1 µM, first compound 0.00316 µM) was 109% and the viability, T/C (second compound 0.1 µM, first compound 0.01 µM) was 115%. For the same compound, the viability, T/C [1] was 105%, the viability, T/C [2] was 104% and the viability, T/C (second compound 0.316 µM, first compound 0.000316 µM) was 113%. For the same compound, the viability, T/C (second compound 0.316 µM, first compound 0.001 µM) was 115%, the viability, T/C (second compound 0.316 µM, first compound 0.00316 µM) was 125% and the viability, T/C (second compound 0.316 µM, first compound 0.01 µM) was 115%. The viability, T/C [3] was 102%, the viability, T/C [4] was 104% and the viability, T/C (second compound 1 µM, first compound 0.000316 µM) was 125%. It also gave a viability, T/C (second compound 1 µM, first compound 0.001 µM) of 117%, a viability, T/C (second compound 1 µM, first compound 0.00316 µM) of 119% and a viability, T/C (second compound 1 µM, first compound 0.01 µM) of 116%. The viability, T/C [5] was 111%, the viability, T/C [6] was 124% and the viability, T/C (second compound 3.16 µM, first compound 0.000316 µM) was 128%. For the same compound, the viability, T/C (second compound 3.16 µM, first compound 0.001 µM) was 114%, the viability, T/C (second compound 3.16 µM, first compound 0.00316 µM) was 118% and the viability, T/C (second compound 3.16 µM, first compound 0.01 µM) was 116%. It also gave a viability, T/C [7] of 114%, a viability, T/C [8] of 99.1% and a viability, T/C (second compound 10 µM, first compound 0.000316 µM) of 26.1%. For the same compound, the viability, T/C (second compound 10 µM, first compound 0.001 µM) was 28.6%, the viability, T/C (second compound 10 µM, first compound 0.00316 µM) was 34.2% and the viability, T/C (second compound 10 µM, first compound 0.01 µM) was 26.6%. For the same compound, the viability, T/C [9] was 28% and the viability, T/C [10] was 22.5%.
Nc1ccccc1NC(=O)c1ccc(CNC(=O)OCc2cccnc2)cc1 + Cc1cncc(-c2nc(NCCc3c[nH]c4ccccc34)c3ncn(C(C)C)c3n2)c1 was tested, and the IC50 (second compound 0.1 µM) was 7.18 µM, the IC50 (second compound 0.316 µM) was 6.48 µM and the IC50 (second compound 1 µM) was 8.11 µM. The IC50 (second compound 3.16 µM) was 5.35 µM, the IC50 (second compound 10 µM) was < 0.0316 µM and the viability, T/C [1] was 94.9%. It also gave a viability, T/C [2] of 96.5%, a viability, T/C (second compound 0.1 µM, first compound 0.316 µM) of 99.3% and a viability, T/C (second compound 0.1 µM, first compound 1 µM) of 107%. The viability, T/C (second compound 0.1 µM, first compound 3.16 µM) was 77%, the viability, T/C (second compound 0.1 µM, first compound 10 µM) was 39.1% and the viability, T/C [3] was 110%. The viability, T/C [4] was 97.2%, the viability, T/C (second compound 0.316 µM, first compound 0.316 µM) was 105% and the viability, T/C (second compound 0.316 µM, first compound 1 µM) was 105%. For the same compound, the viability, T/C (second compound 0.316 µM, first compound 3.16 µM) was 72.3%, the viability, T/C (second compound 0.316 µM, first compound 10 µM) was 36.5% and the viability, T/C [5] was 118%. It also gave a viability, T/C [6] of 116%, a viability, T/C (second compound 1 µM, first compound 0.316 µM) of 113% and a viability, T/C (second compound 1 µM, first compound 1 µM) of 108%. It also gave a viability, T/C (second compound 1 µM, first compound 3.16 µM) of 72%, a viability, T/C (second compound 1 µM, first compound 10 µM) of 45.1% and a viability, T/C [7] of 77.8%. The viability, T/C [8] was 81.4%, the viability, T/C (second compound 3.16 µM, first compound 0.316 µM) was 70.3% and the viability, T/C (second compound 3.16 µM, first compound 1 µM) was 64.2%. It also gave a viability, T/C (second compound 3.16 µM, first compound 3.16 µM) of 68.1%, a viability, T/C (second compound 3.16 µM, first compound 10 µM) of 33.8% and a viability, T/C [9] of 11.6%. For the same compound, the viability, T/C [10] was 7.91%, the viability, T/C (second compound 10 µM, first compound 0.316 µM) was 7.77% and the viability, T/C (second compound 10 µM, first compound 1 µM) was 9.69%. For the same compound, the viability, T/C (second compound 10 µM, first compound 3.16 µM) was 7.99% and the viability, T/C (second compound 10 µM, first compound 10 µM) was 3.12%.

Source: PubChem BioAssay AID1919001 (Molecular Pharmacology Branch, DTP, NCI, 2023)
